The NIST ThermoML archive (doi:10.1016/j.jct.2015.11.008)

Experiments:
[1] = 298.15 K, 101.33 kPa, Liquid; for mass density: Vibrating tube method
[2] = xn = mol fraction of the nth substance listed; settings: 298.15 K, 101 kPa, Liquid; for mass density: Vibrating tube method

CCCC[n+]1ccc(C)cc1.O=S(=O)([N-]S(=O)(=O)C(F)(F)F)C(F)(F)F
[1]
Settings	viscosity [mPa·s]
Concentric cylinders viscometry	55.7
Falling or rolling sphere viscometry	56.1

Settings	mass density [kg/m3]
[1]	1412.3

CCCC[n+]1ccn(C)c1.O=S(=O)([N-]S(=O)(=O)C(F)(F)F)C(F)(F)F
[1]
Settings	viscosity [mPa·s]
Concentric cylinders viscometry	50.9
Falling or rolling sphere viscometry	51.5

Settings	mass density [kg/m3]
[1]	1436.3

CCCC[n+]1ccc(C)cc1.O=S(=O)([N-]S(=O)(=O)C(F)(F)F)C(F)(F)F + O
viscosity [mPa·s], [2]
Settings	x2 = 0.00167	x2 = 0.00513	x2 = 0.01053	x2 = 0.01985	x2 = 0.04978	x2 = 0.1002
Concentric cylinders viscometry	55.7	55.3	54.8	53.9	50.4	45.6
Falling or rolling sphere viscometry	56.1	56	55.1	54.2	51.3	46

[2]
Settings	mass density [kg/m3]
x2 = 0.00167	1412.27
x2 = 0.00513	1412.02
x2 = 0.01053	1411.94
x2 = 0.01985	1411.55
x2 = 0.04978	1410.48
x2 = 0.1002	1408.83

CCCC[n+]1ccn(C)c1.O=S(=O)([N-]S(=O)(=O)C(F)(F)F)C(F)(F)F + O
viscosity [mPa·s], [2]
Settings	x2 = 0.00078	x2 = 0.00473	x2 = 0.0101	x2 = 0.01864	x2 = 0.05002	x2 = 0.1001
Concentric cylinders viscometry	50.9	50.6	49.9	49.3	45.9	41.7
Falling or rolling sphere viscometry	51.5	50.8	50.5	49.4	46.8	42.3

[2]
Settings	mass density [kg/m3]
x2 = 0.00078	1436.26
x2 = 0.00473	1436.04
x2 = 0.0101	1435.89
x2 = 0.01864	1435.57
x2 = 0.05002	1434.5
x2 = 0.1001	1432.47

CCCCn1cc[n+](C)c1.F[B-](F)(F)F [1-butyl-3-methylimidazolium tetrafluoroborate]
[1]
Settings	viscosity [mPa·s]
Concentric cylinders viscometry	108
Falling or rolling sphere viscometry	111.9

Settings	mass density [kg/m3]
[1]	1201.7

CCCCn1cc[n+](C)c1.F[B-](F)(F)F [1-butyl-3-methylimidazolium tetrafluoroborate] + O
viscosity [mPa·s], [2]
Settings	x2 = 0.00062	x2 = 0.005	x2 = 0.00993	x2 = 0.01995	x2 = 0.04989	x2 = 0.09965
Concentric cylinders viscometry	108	105.9	103.7	99.5	87.9	71.4
Falling or rolling sphere viscometry	111.9	107.4	106.5	99.9	89.6	72.5

[2]
Settings	mass density [kg/m3]
x2 = 0.00062	1201.69
x2 = 0.005	1201.55
x2 = 0.00993	1201.36
x2 = 0.01995	1201.1
x2 = 0.04989	1200.18
x2 = 0.09965	1198.59

CCCCn1cc[n+](C)c1.O=S(=O)([O-])C(F)(F)F [1-butyl-3-methylimidazolium trifluoromethanesulfonate]
[1]
Settings	viscosity [mPa·s]
Concentric cylinders viscometry	90.7
Falling or rolling sphere viscometry	92.8

Settings	mass density [kg/m3]
[1]	1298.3

CCCCn1cc[n+](C)c1.O=S(=O)([O-])C(F)(F)F [1-butyl-3-methylimidazolium trifluoromethanesulfonate] + O
viscosity [mPa·s], [2]
Settings	x2 = 0.00022	x2 = 0.00612	x2 = 0.01	x2 = 0.01738	x2 = 0.04999	x2 = 0.1003
Concentric cylinders viscometry	90.7	89.2	88.2	86.2	79.7	70.4
Falling or rolling sphere viscometry	92.7	91.3	89.6	87.9	81.3	70.6

[2]
Settings	mass density [kg/m3]
x2 = 0.00022	1298.32
x2 = 0.00612	1298.12
x2 = 0.01	1297.98
x2 = 0.01738	1297.72
x2 = 0.04999	1296.84
x2 = 0.1003	1295.4

CCCC[N+](C)(C)C.O=S(=O)([N-]S(=O)(=O)C(F)(F)F)C(F)(F)F [butyltrimethylammonium bis(trifluoromethylsulfonyl)imide]
[1]
Settings	viscosity [mPa·s]
Concentric cylinders viscometry	104.9
Falling or rolling sphere viscometry	104

Settings	mass density [kg/m3]
[1]	1392.9

CCCC[N+](C)(C)C.O=S(=O)([N-]S(=O)(=O)C(F)(F)F)C(F)(F)F [butyltrimethylammonium bis(trifluoromethylsulfonyl)imide] + O
viscosity [mPa·s], [2]
Settings	x2 = 6e-05	x2 = 0.00494	x2 = 0.01002	x2 = 0.01995	x2 = 0.05012	x2 = 0.09979
Concentric cylinders viscometry	104	103.5	101.4	98.6	87.3	73
Falling or rolling sphere viscometry	105	103.6	102.8	99.6	88.2	73

[2]
Settings	mass density [kg/m3]
x2 = 6e-05	1392.89
x2 = 0.00494	1392.7
x2 = 0.01002	1392.61
x2 = 0.01995	1392.23
x2 = 0.05012	1391.7
x2 = 0.09979	1390.15
